The record followed here is publication PMC7531004, “Discovery of gramicidin A analogues with altered activities by multidimensional screening of a one-bead-one-compound library” (Nature Communications, 2020).

Series [1] relates to Streptococcus pyogenes SSI-9. Description: Antibacterial activity assay of bead-derived peptides (three concentrations). In kind it is cell-based. Also noted: key: +++: inhibition by the 640-fold diluted peptide solution; ++: inhibition by the 160-fold diluted solution; +: inhibition by the 40-fold diluted solution; -: no inhibition. The conditions noted are these: S. pyogenes, bead-derived peptide solution, three concentrations. In a few lines: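 Bead-derived library peptide stocks in DMSO were tested undiluted and after 4- and 16-fold DMSO dilution against S. pyogenes SSI-9 (2 × 10^5 CFU/well) in cation-adjusted Mueller Hinton Broth with 5% laked horse blood. After 18 h at 37 °C, wells were scored for precipitation of grown cells.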

The subject of series [2] is P388 mouse leukemia cells. The conditions noted are these: 92 h. In a few lines: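 First, library peptide stocks are diluted 250-fold in RPMI1640 with 10% heat-inactivated FBS. Next, they are mixed with P388 cells to give 1 × 10^4 cells/mL and incubated 92 h at 37 °C, 5% CO2. Finally, viability (%) is scored by WST-1 absorbance at 415 nm.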
Series [3] in a line: H+/Na+ transport assay of bead-derived peptides (one-point).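 Note: relative to parent gramicidin A activity set to 1.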 To be noted: bead-derived peptide solution, EYPC/EYPG LUVs. The format is biochemical. Also noted: key: relative activity; mean of two control wells = 1.00. In a few lines: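 H+/Na+ transport is monitored through pyranine fluorescence in freshly extruded LUVs after a 30-min room-temperature vortex with each library peptide at a single concentration. Signals are normalized to detergent (Triton X-100) and untreated controls.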

Where a SMILES comes first, the peptide text is derived from it. [ ]: non-standard residue; d: D form. The star is where a group is joined. NHCH2CH2OH = OCCN*; For = O=C*

Take `CC(C)C[C@@H](NC(=O)[C@H](C)NC(=O)CNC(=O)[C@@H](NC=O)C(C)C)C(=O)N[C@@H](C)C(=O)N[C@@H](C(=O)N[C@H](C(=O)N[C@@H](C(=O)N[C@@H](Cc1c[nH]c2ccccc12)C(=O)N[C@@H](C(=O)N[C@@H](Cc1c[nH]c2ccccc12)C(=O)N[C@@H](C(=O)N[C@@H](Cc1c[nH]c2ccccc12)C(=O)N[C@@H](C(=O)N[C@@H](Cc1c[nH]c2ccccc12)C(=O)NCCO)C(C)C)C(C)C)C(C)C)C(C)C)C(C)C)C(C)C` [compound 9992] (For-VGA[dL]A[dV]V[dV]W[dV]W[dV]W[dV]W-NHCH2CH2OH): the antibacterial activity result in series [1] is “+”. This compound gave a cell viability/% in series [2] of 100.0%. In addition, in series [3], the “H+/Na+ transport activity normalized against the value of 1 (1.00)” value (shortened to “H+/Na+ transport activity normalized”) is recorded as 1.23.
On to `CC(C)C[C@@H](NC(=O)[C@H](C)NC(=O)[C@H](NC(=O)[C@H](C)NC(=O)CNC(=O)[C@@H](NC=O)C(C)C)C(C)C)C(=O)N[C@H](C(=O)N[C@@H](C(=O)N[C@@H](Cc1c[nH]c2ccccc12)C(=O)N[C@H](CC(C)C)C(=O)N[C@@H](Cc1c[nH]c2ccccc12)C(=O)N[C@@H](C(=O)N[C@@H](Cc1c[nH]c2ccccc12)C(=O)N[C@H](CC(C)C)C(=O)N[C@@H](Cc1c[nH]c2ccccc12)C(=O)NCCO)C(C)C)C(C)C)C(C)C` [compound 660] (For-VGA[dV]A[dL]V[dV]W[dL]W[dV]W[dL]W-NHCH2CH2OH), for which, in series [1], the antibacterial activity result was “++”. The cell viability/% in series [2] was determined as 15.6%. The “H+/Na+ transport activity normalized” value in series [3] is recorded as 1.06.
The like results for `CC(C)C[C@@H](NC(=O)[C@H](C)NC(=O)CNC(=O)[C@@H](NC=O)C(C)C)C(=O)N[C@@H](C)C(=O)N[C@@H](C(=O)N[C@H](C(=O)N[C@@H](C(=O)N[C@@H](Cc1c[nH]c2ccccc12)C(=O)N[C@@H](C(=O)N[C@@H](Cc1c[nH]c2ccccc12)C(=O)N[C@H](CC(C)C)C(=O)N[C@@H](Cc1c[nH]c2ccccc12)C(=O)N[C@@H](C(=O)N[C@@H](Cc1c[nH]c2ccccc12)C(=O)NCCO)C(C)C)C(C)C)C(C)C)C(C)C)C(C)C` [compound 4884] (For-VGA[dL]A[dV]V[dV]W[dV]W[dL]W[dV]W-NHCH2CH2OH) were, in that order, “++”, 49.1% and 1.27.
The like results for `CC(C)C[C@@H](NC(=O)[C@H](C)NC(=O)CNC(=O)[C@@H](NC=O)C(C)C)C(=O)N[C@@H](C)C(=O)N[C@H](CC(C)C)C(=O)N[C@H](C(=O)N[C@@H](C(=O)N[C@@H](Cc1c[nH]c2ccccc12)C(=O)N[C@@H](C(=O)N[C@@H](Cc1c[nH]c2ccccc12)C(=O)N[C@@H](C(=O)N[C@@H](Cc1c[nH]c2ccccc12)C(=O)N[C@@H](C(=O)N[C@@H](Cc1c[nH]c2ccccc12)C(=O)NCCO)C(C)C)[C@H](C)O)C(C)C)C(C)C)C(C)C` [compound 8749] (For-VGA[dL]A[dL]V[dV]W[dV]W[dT]W[dV]W-NHCH2CH2OH) were, in that order, “-”, 62.2% and 1.05.
The like results for `CC(C)C[C@@H](NC(=O)[C@H](Cc1c[nH]c2ccccc12)NC(=O)[C@H](NC(=O)[C@H](Cc1c[nH]c2ccccc12)NC(=O)[C@H](NC(=O)[C@@H](NC(=O)[C@H](NC(=O)[C@H](C)NC(=O)[C@H](NC(=O)[C@H](C)NC(=O)CNC(=O)[C@@H](NC=O)C(C)C)C(C)C)C(C)C)C(C)C)C(C)C)C(C)C)C(=O)N[C@@H](Cc1c[nH]c2ccccc12)C(=O)N[C@@H](C(=O)N[C@@H](Cc1c[nH]c2ccccc12)C(=O)NCCO)C(C)C` [compound 9571] (For-VGA[dV]A[dV]V[dV]W[dV]W[dL]W[dV]W-NHCH2CH2OH) were, in that order, “+”, 100.0% and 1.14.
`CC(C)C[C@@H](NC(=O)[C@@H](NC(=O)[C@H](NC(=O)[C@H](C)NC(=O)[C@H](NC(=O)[C@H](C)NC(=O)CNC(=O)[C@@H](NC=O)C(C)C)C(C)C)C(C)C)C(C)C)C(=O)N[C@@H](Cc1c[nH]c2ccccc12)C(=O)N[C@@H](C(=O)N[C@@H](Cc1c[nH]c2ccccc12)C(=O)N[C@@H](C(=O)N[C@@H](Cc1c[nH]c2ccccc12)C(=O)N[C@@H](C(=O)N[C@@H](Cc1c[nH]c2ccccc12)C(=O)NCCO)C(C)C)C(C)C)C(C)C` [compound 1873] (For-VGA[dV]A[dV]V[dL]W[dV]W[dV]W[dV]W-NHCH2CH2OH): in series [1], the antibacterial activity entry is given as “-”. Besides, the cell viability/% in series [2] is 100.0%. In addition, the “H+/Na+ transport activity normalized” value in series [3] worked out at 1.09.
On to `CC(C)C[C@@H](NC(=O)[C@H](Cc1c[nH]c2ccccc12)NC(=O)[C@H](NC(=O)[C@H](Cc1c[nH]c2ccccc12)NC(=O)[C@H](NC(=O)[C@@H](NC(=O)[C@H](NC(=O)[C@H](C)NC(=O)[C@H](NC(=O)[C@H](C)NC(=O)CNC(=O)[C@@H](NC=O)C(C)C)[C@H](C)O)C(C)C)C(C)C)C(C)C)C(C)C)C(=O)N[C@@H](Cc1c[nH]c2ccccc12)C(=O)N[C@@H](C(=O)N[C@@H](Cc1c[nH]c2ccccc12)C(=O)NCCO)C(C)C` [compound 6820] (For-VGA[dT]A[dV]V[dV]W[dV]W[dL]W[dV]W-NHCH2CH2OH), for which, in series [1], the antibacterial activity entry is listed as “-”. The cell viability/% in series [2] came out at 100.0%. The “H+/Na+ transport activity normalized” value in series [3] is on record as 1.20.
In the case of `CNC(=O)C[C@@H](NC(=O)[C@@H](NC(=O)[C@@H](CC(C)C)NC(=O)[C@H](C)NC(=O)[C@@H](CC(C)C)NC(=O)[C@H](C)NC(=O)CNC(=O)[C@@H](NC=O)C(C)C)C(C)C)C(=O)N[C@@H](Cc1c[nH]c2ccccc12)C(=O)N[C@H](CC(C)C)C(=O)N[C@@H](Cc1c[nH]c2ccccc12)C(=O)N[C@H](CC(C)C)C(=O)N[C@@H](Cc1c[nH]c2ccccc12)C(=O)N[C@@H](C(=O)N[C@@H](Cc1c[nH]c2ccccc12)C(=O)NCCO)[C@H](C)O` [compound 3929] (For-VGA[dL]A[dL]V[dD](NHMe)W[dL]W[dL]W[dT]W-NHCH2CH2OH), the antibacterial activity entry in series [1] was “-”. The same compound returned a cell viability/% in series [2] of 100.0%. The “H+/Na+ transport activity normalized” value in series [3] is 1.14.
The like results for `CC(C)C[C@@H](NC(=O)[C@H](C)NC(=O)CNC(=O)[C@@H](NC=O)C(C)C)C(=O)N[C@@H](C)C(=O)N[C@H](CC(C)C)C(=O)N[C@H](C(=O)N[C@@H](C(=O)N[C@@H](Cc1c[nH]c2ccccc12)C(=O)N[C@@H](C(=O)N[C@@H](Cc1c[nH]c2ccccc12)C(=O)N[C@@H](C(=O)N[C@@H](Cc1c[nH]c2ccccc12)C(=O)N[C@H](CC(C)C)C(=O)N[C@@H](Cc1c[nH]c2ccccc12)C(=O)NCCO)C(C)C)[C@H](C)O)C(C)C)C(C)C` [compound 10542] (For-VGA[dL]A[dL]V[dV]W[dT]W[dV]W[dL]W-NHCH2CH2OH) were, in that order, “-”, 100.0% and 1.02.
The like results for `CC(C)C[C@@H](NC(=O)[C@@H](NC(=O)[C@H](NC(=O)[C@H](C)NC(=O)[C@H](NC(=O)[C@H](C)NC(=O)CNC(=O)[C@@H](NC=O)C(C)C)C(C)C)C(C)C)C(C)C)C(=O)N[C@@H](Cc1c[nH]c2ccccc12)C(=O)N[C@@H](C(=O)N[C@@H](Cc1c[nH]c2ccccc12)C(=O)N[C@@H](C(=O)N[C@@H](Cc1c[nH]c2ccccc12)C(=O)N[C@@H](C(=O)N[C@@H](Cc1c[nH]c2ccccc12)C(=O)NCCO)[C@H](C)O)C(C)C)C(C)C` [compound 6781] (For-VGA[dV]A[dV]V[dL]W[dV]W[dV]W[dT]W-NHCH2CH2OH) were, in that order, “+”, 100.0% and 1.04.
For the compound `CC(C)C[C@@H](NC(=O)[C@H](Cc1c[nH]c2ccccc12)NC(=O)[C@H](NC(=O)[C@H](Cc1c[nH]c2ccccc12)NC(=O)[C@H](NC(=O)[C@H](Cc1c[nH]c2ccccc12)NC(=O)[C@@H](CC(C)C)NC(=O)[C@@H](NC(=O)[C@H](NC(=O)[C@H](C)NC(=O)[C@H](NC(=O)[C@H](C)NC(=O)CNC(=O)[C@@H](NC=O)C(C)C)C(C)C)C(C)C)C(C)C)C(C)C)[C@H](C)O)C(=O)N[C@@H](Cc1c[nH]c2ccccc12)C(=O)NCCO` [compound 2580] (For-VGA[dV]A[dV]V[dL]W[dV]W[dT]W[dL]W-NHCH2CH2OH), the antibacterial activity entry in series [1] is given as “-”. This compound came in with a cell viability/% in series [2] of 100.0%. For the same compound, the “H+/Na+ transport activity normalized” value in series [3] amounted to 1.00.
The like results for `CC(C)C[C@@H](NC(=O)[C@H](C)NC(=O)[C@H](NC(=O)[C@H](C)NC(=O)CNC(=O)[C@@H](NC=O)C(C)C)C(C)C)C(=O)N[C@H](C(=O)N[C@@H](C(=O)N[C@@H](Cc1c[nH]c2ccccc12)C(=O)N[C@@H](C(=O)N[C@@H](Cc1c[nH]c2ccccc12)C(=O)N[C@@H](C(=O)N[C@@H](Cc1c[nH]c2ccccc12)C(=O)N[C@H](CC(C)C)C(=O)N[C@@H](Cc1c[nH]c2ccccc12)C(=O)NCCO)C(C)C)C(C)C)[C@H](C)O)C(C)C` [compound 9738] (For-VGA[dV]A[dL]V[dT]W[dV]W[dV]W[dL]W-NHCH2CH2OH) were, in that order, “-”, 100.0% and 1.21.
